Results as given in patent publication US11458138B2 (Novartis AG, priority 2017, dated 2022).

Tests used:
[1] = target: Human LATS2 kinase domain protein (Homo sapiens (Human), UniProt Q9NRM7); assay: LATS2 Biochemical Caliper Assay (Compound Examples 1-290); settings: 400 micromolar ATP
Method: Human LATS2 kinase domain protein was purchased from Carnabio (catalogue number 01-124), which harbors the catalytic domain of amino acids 553-1088, and was co-purified with human His-tagged MOBKL1A (NP_775-739). 5 microlitre of enzyme buffer, 100 nL of compounds and 5 microlitre of localising aid buffer were added into 384-well plates. […] The plates were incubated at 25° C. for 3 hours. 40 microlitre of stop buffer with 25 mM EDTA (NanoSyn) was added to each well to terminate the reaction. Localising aids and products were separated electrophoretically using the microfluidic-based Caliper Labchip 3000 Drug Discovery System (Caliper Life Sciences). Plates were read using blue laser excitation and green fluorescence detection and quantified by fluorescence intensity.

LATS1 = LATS1 (Homo sapiens (Human), UniProt O95835); assay: LATS1 biochemical assay (Table 1A, Compound Examples 1-290; method in the earlier part)
[2] = test system: human limbal stem cells (LSCs); assay: Human limbal stem cell population expansion: expansion factor; format: cell-based; settings: 10 micromolar, XVIVO15 medium, two passages, ratio of expanded to seeded cells
Method: (§1) Cells were cultured at 37° C. in 5% CO2.
(§2) For each compound, two sets of cultures were generated. A first set of cultures was fixed in 4% PFA for 20 minutes at room temperature after cells isolated from the cornea had attached to the cell culture dish (typically 24 h after cell plating). A second set of cultures was fixed in 4% PFA for 20 minutes at room temperature after being cultured for two passages. Cells were passaged when they reached 90-100% confluence.
To evaluate cell expansion ratios, nuclei were counted using a Zeiss LSM 880 confocal microscope. The expansion factor was then determined by calculating the ratio of the expanded population of cells to population of seeded cells.

[3] = test system: Phospho-YAP (SER127) in HaCaT cells; assay: pYAP HTRF Assay (HaCaT Cells); format: cell-based, human; settings: Homo sapiens, 2 hours
Procedure, shortened: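 HaCaT cells at 5500 cells/well were cultured 48 hours at 37° C, then treated with compound for 2 hours. Phospho-YAP (Ser127) was detected by HTRF after an overnight (20 hrs) room-temperature incubation, read as the 665 nm/620 nm ratio.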

[4] = test system: human corneal endothelial cells (CECs); assay: Human corneal endothelial cell population expansion: endothelial cell density in vitro; format: cell-based; settings: 10 micromolar compound, X-VIVO15 medium, 10 days
Method: as §1
(§3) For each compound, two sets of cultures were generated. A first set of cultures was fixed in 4% PFA for 20 minutes at room temperature after cells isolated from the cornea had attached to the cell culture dish (typically 24 h after cell plating). A second set of cultures was fixed in 4% PFA for 20 minutes at room temperature 10 days after the first one.
(§4) To measure cell density in all fixed cultures, the number of nuclei stained with Sytox Orange (ThermoFisher) were counted per surface area as follows: fixed cell cultures fixed were permeabilized in a solution of 0.3% Triton X-100 (Sigma-Aldrich). Cells were then labeled in a solution of 0.5 micromolar of Sytox Orange in PBS for 5 minutes at room temperature. Nuclei were counted under a Zeiss epifluorescence microscope. The expansion factor was then determined by calculating the ratio of the expanded population of cells to population of seeded cells.

[5] = test system: human corneal endothelial cells (CECs); assay: Human corneal endothelial cell population expansion: fold cell expansion; format: cell-based; settings: 10 micromolar compound, X-VIVO15 medium, 10 days, ratio of expanded to seeded cells
Method: as §1, §3, §4

[6] = test system: Phospho-YAP (Ser127) in JHH-5 cells; assay: pYAP HTRF Assay (JHH-5 cells); format: cell-based; settings: 2 hours
Procedure, shortened: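 JHH-5 cells (24000/well) cultured 24 h at 37 °C in William's E with 10% FBS, then exposed to compounds for 2 h at 37 °C. After lysis, pYAP d2/cryptate antibodies incubated 18 h at room temperature; HTRF ratio 665/620 nm ×10000.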

[7] = test system: human limbal stem cells (LSCs); assay: Human limbal stem cell population expansion: percentage of p63alpha-positive cells; format: cell-based; settings: 10 micromolar, XVIVO15 medium
Method: as §1, §2
In order to observe that the expanded cell population expressed p63alpha, this was measured by immunohistochemistry as follows. The fixed cell cultures were permeabilized and blocked in a blocking solution of 0.3% Triton X-100 (Sigma-Aldrich) and 3% donkey serum in PBS for 30 minutes. Cells were then labeled with primary antibody in the blocking solution for 12 hours at 4° C. Primary antibody used was p63alpha from Cell Signalling. Samples were washed in PBS three times and donkey-raised secondary antibody Alexa Fluor 488 (Molecular Probes) at 1:500 dilution were applied for 30 minutes at room temperature. Cell nuclei were then labeled in a solution of 0.5 micromolar of Sytox Orange (ThermoFisher) in PBS for 5 minutes at room temperature.
To evaluate the percentage of p63alpha-positive cells, the number of cells labeled by the anti-p63alpha antibody was counted and the total number of cells was determined by counting the number of nuclei stained by Sytox Orange. The proportion of p63alpha-positive cells was then determined by calculating the percentage of Sytox-orange-positive nuclei that also expressed p63alpha.

[8] = test system: YAP nuclear translocation in HaCaT cells; assay: YAP Translocation Assay (HaCaT Cells); format: cell-based, human; settings: Homo sapiens, 24 hours
Procedure, shortened: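 HaCaT cells (20,000/well) in DMEM + 10% FBS were plated overnight at 37° C, then exposed to compound for 24 h at 37° C. Cells were fixed with PFA, permeabilized with 0.1% Triton/1.5% BSA and imaged by high-content imaging.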

[9] = test system: hepatic progenitor cells (HPC); assay: Mouse Hepatic Progenitor Cell Proliferation Assay; format: cell-based; settings: 96 h, mean number of nuclei per organoid, 4 days
Method: The progenitor cells were isolated from C57Bl/6 wild type mice and expanded as described (Lu, W. Y. et al., Nat. Cell Biol. 17, 971-983 (2015)). Cells are stocked in liquid nitrogen, thawed on need and tested using the following protocol: HPC are harvested from their collagen I coated culture vessel (Corning; cat. Number 354487), counted and assessed for viability using a CEDEX cell counter (Roche). After centrifugation, 12 million cells are re-suspended in 2 ml of William's E Medium (Life Technologies; cat. Number 22551089) supplemented with 10% Fetal Bovine Serum (Amimed; cat. Number 2-01F10-I); 1% Penicillin/Streptomycin (Sigma; cat. Number 15140-122); 17.6 mM of NaHCO3 (Sigma; cat. Number S8761); 20 mM HEPES (Gibco; cat. Number H3375); 10 mM Nicotinamide (Sigma; cat. Number N0636-100); 14 mM glucose (Sigma; cat. Number G7021); 1 mM Sodium Pyruvate (Sigma; cat. Number TMS-005); Insulin Transferrin Selenium (ITS) diluted 100 times from stock solution (Sigma; cat. Number 13148); 100 nM Dexamethasone (Sigma; cat. Number D4902); 0.2 mM ascorbic acid (Sigma; cat. Number A7506-100G); 10 ng/ml recombinant human IL-6 (Preprotech; cat. Number 200-06); 10 ng/ml murine HGF (Preprotech; cat. Number 315-23; Lot. 0711S527); 10 ng/ml murine EGF (Preprotech; cat. Number 315-09; Lot. 0217179-1). Six milliliters of Matrigel (Corning; cat. Number 354277; Lot: 5187006) are added to the cell/media solution, thus the final cell concentration is 1.5 million HPC per milliliter, in 25% culture medium and 75% Matrigel. Five microliter (p1) of the cell/Matrigel suspension are transferred in each well of the clear bottom 96 well assay plate (Corning; cat. Number 356649) using the Star dispenser (Hamilton). […]
Plates are imaged with the CV7000 imager (Yokogawa) at a 10 fold magnification using the bright field lamp (lamp power: 10%; exposure time: 20 ms) and the 405 nanometer laser (laser power: 100%; exposure time 200 ms). Four different images per well were acquired and analyzed with the Yokogawa image analysis software (YAS). […]

Sequence of Human LATS2 kinase domain protein (Q9NRM7 553-1088): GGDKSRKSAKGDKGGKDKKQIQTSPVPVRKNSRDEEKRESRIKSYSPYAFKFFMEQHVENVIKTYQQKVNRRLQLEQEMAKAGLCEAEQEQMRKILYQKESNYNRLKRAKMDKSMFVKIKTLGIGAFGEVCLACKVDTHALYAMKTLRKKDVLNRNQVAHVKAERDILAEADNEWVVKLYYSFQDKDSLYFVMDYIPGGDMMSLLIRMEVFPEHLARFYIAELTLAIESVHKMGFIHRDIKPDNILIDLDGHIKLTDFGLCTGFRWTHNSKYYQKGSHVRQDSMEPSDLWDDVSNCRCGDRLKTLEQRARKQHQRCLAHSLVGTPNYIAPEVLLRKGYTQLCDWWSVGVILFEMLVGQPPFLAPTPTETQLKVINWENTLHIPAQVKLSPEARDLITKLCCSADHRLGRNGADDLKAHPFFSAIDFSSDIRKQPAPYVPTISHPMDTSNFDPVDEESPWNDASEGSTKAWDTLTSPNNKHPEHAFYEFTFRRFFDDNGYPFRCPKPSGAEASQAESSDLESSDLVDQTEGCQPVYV
Sequence of Human LATS2 kinase domain protein (Q7L9L4 whole entry partner, the tested form may be a part): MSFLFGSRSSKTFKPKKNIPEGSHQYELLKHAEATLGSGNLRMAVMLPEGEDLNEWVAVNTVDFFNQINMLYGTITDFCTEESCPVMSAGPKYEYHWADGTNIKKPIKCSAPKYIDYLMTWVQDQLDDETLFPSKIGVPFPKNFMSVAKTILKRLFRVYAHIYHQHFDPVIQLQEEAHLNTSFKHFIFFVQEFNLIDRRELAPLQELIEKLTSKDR
Sequence of LATS1 (O95835 whole entry, looked up): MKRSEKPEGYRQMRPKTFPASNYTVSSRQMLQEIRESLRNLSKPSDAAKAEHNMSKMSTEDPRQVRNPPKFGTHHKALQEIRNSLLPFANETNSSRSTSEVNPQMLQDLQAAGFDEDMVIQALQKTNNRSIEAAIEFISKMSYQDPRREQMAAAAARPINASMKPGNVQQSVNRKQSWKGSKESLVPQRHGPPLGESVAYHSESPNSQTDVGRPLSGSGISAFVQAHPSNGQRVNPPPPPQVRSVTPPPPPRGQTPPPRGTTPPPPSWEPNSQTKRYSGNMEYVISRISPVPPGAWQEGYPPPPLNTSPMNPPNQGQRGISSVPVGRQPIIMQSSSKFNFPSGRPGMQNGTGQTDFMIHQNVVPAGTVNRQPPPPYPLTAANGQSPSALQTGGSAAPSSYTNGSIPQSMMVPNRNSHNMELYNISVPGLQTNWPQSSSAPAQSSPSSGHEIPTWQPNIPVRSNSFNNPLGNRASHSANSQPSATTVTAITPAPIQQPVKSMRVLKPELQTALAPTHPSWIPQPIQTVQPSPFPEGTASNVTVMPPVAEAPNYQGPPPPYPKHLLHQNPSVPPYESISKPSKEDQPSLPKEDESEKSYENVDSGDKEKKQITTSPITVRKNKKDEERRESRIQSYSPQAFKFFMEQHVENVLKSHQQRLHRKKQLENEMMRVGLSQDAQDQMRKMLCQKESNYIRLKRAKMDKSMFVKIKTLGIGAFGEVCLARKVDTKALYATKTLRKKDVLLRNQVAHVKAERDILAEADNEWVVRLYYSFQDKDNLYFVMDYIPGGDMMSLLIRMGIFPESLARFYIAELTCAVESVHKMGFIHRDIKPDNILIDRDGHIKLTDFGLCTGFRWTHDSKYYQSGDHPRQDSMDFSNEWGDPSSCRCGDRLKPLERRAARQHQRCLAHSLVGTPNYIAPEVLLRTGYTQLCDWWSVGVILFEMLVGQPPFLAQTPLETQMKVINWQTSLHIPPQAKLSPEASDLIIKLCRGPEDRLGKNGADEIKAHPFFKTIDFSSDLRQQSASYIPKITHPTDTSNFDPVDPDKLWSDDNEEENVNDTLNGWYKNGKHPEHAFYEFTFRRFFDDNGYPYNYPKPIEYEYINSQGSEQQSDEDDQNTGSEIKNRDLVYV
Sequence of LATS1 (Q7L9L4 whole entry partner, looked up): as the sequence (Q7L9L4 whole entry partner, the tested form may be a part) above

Row | IC50 [1] [nM] | IC50 (LATS1) [nM] | IC50 [6] [nM] | Structure (SMILES) | Expansion factor [2] | IC50 [3] [nM] | Endothelial Cell density in vitro [4] [cells/mm^2] | Expansion factor (Fold Cell expansion) [5] | Percentage of p63a-positive cells [7] [%] | EC50 [8] [nM] | EC50 [9] [nM]
1 | 8 | 1 | 2600 | CC(C)Nc1nc(-c2ccncc2)nc2cnccc12 [Example 6, N-(propan-2-yl)-2-(pyridin-4-yl)pyrido[3,4-d]pyrimidin-4-amine] | 1275 | 1240 | 3378 | 391 | 93 | 1700 | –
2 | – | – | – | C[C@H](N(C)c1nc(-c2ccncc2)nc2cnccc12)C(F)(F)F [Example 48a, N-methyl-2-(pyridin-4-yl)-N-[(2S)-1,1,1-trifluoropropan-2-yl]pyrido[3,4-d]pyrimidin-4-amine] | – | – | – | – | – | – | 260
3 | 2 | 1 | 600 | FC(F)(F)C1(Nc2nc(-c3ccncc3)nc3cnccc23)CCC1 [Example 62, 2-(pyridin-4-yl)-N-[1-(trifluoromethyl)cyclobutyl]pyrido[3,4-d]pyrimidin-4-amine] | 1712 | 40 | 3301 | 402 | 95 | 538 | –
4 | 11 | 2 | 6200 | CC(C)(CO)Nc1nc(-c2ccncc2)nc2cnccc12 [Example 66, 2-methyl-2-{[2-(pyridin-4-yl)pyrido[3,4-d]pyrimidin-4-yl]amino}propan-1-ol] | 1160 | 534 | 2503 | 280 | 89 | 1010 | –
5 | 20 | 3 | 1700 | CC(C)(Nc1nc(-c2ccncc2Cl)nc2cnccc12)C(F)(F)F [Example 139, 2-(3-chloropyridin-4-yl)-N-(1,1,1-trifluoro-2-methylpropan-2-yl)pyrido[3,4-d]pyrimidin-4-amine] | 961 | 380 | 1179 | 107 | 87 | 2660 | –
6 | 15 | 2 | 9000 | CCCNc1nc(-c2c[nH]nc2C(F)(F)F)nc2cnccc12 [Example 287, N-propyl-2-(3-(trifluoromethyl)-1H-pyrazol-4-yl)pyrido[3,4-d]pyrimidin-4-amine] | 991 | 2990 | 1893 | 237 | 86 | 3880 | –
7 | 34 | 4 | – | FC(F)(F)C1(Nc2nc(-c3ccncc3)cc3cnccc23)CC1 [Example 288, 3-(pyridin-4-yl)-N-(1-(trifluoromethyl)cyclopropyl)-2,6-naphthyridin-1-amine] | 1241 | 18300 | 2779 | 302 | 95 | 7420 | –
8 | 8 | 4 | 3000 | FC(F)(F)C1CN(c2nc(-c3ccncc3)nc3cnccc23)CCN1 (centres unmarked) [Example 290, 2-(pyridin-4-yl)-4-(3-(trifluoromethyl)piperazin-1-yl)pyrido[3,4-d]pyrimidine] | 1051 | – | 2071 | 221 | 90 | 1390 | –
